# Experiments:
# Solubility of compounds = type: physicochemical; conditions: acidic pH conditions
# Method: The main objective of this example is to investigate the solubility of the compounds in Example 1.
# Method: A certain amoun of NPL-00, NPL-000, and NPL-1 were weighed and transferred into centrifuge tubes, respectively. Solvent was added to each tube, and the pH value of the system was adjusted with hydrochloric acid and sodium hydroxide. The mixture was shaken for 30 s every 5 min, and the dissolution state was observed within 30 min. If incomplete dissolution was observed, additional solvent was supplemented, and the above operations were repeated until the compounds were completely dissolved, and the volume of solvent at this moment was recorded. The solubility of less than 0.1 mg/mL was defined as "insoluble."
# C2C12 cells = assay: Differentiation of C2C12 cells (MYH1 immunostaining); type: cell-based; conditions: 0.3 µM, 7 days, medium with 2% HBS, vs control group; FIG. 4
# Method: The main objective of this example is to investigate the promotive effect of the compounds in Example 1 on the differentiation of muscle stem cells.
# Method: C2C12 cells were selected and seeded into culture plates. After stabilization for 48 h, the medium was replaced with a medium containing 2% HBS to induce differentiation of the C2C12 cells. Meanwhile, the treatment group was treated with 0.3 µM NPL-1, while the control group was treated with an equivalent volume of the compound solvent. After continuous culture for 7 days, immunohistochemical staining was performed using MYH1 antibody, and the cell nuclei were stained with DAPI. Finally, the two channels were merged to analyze the degree of cell differentiation.
# Hacat cells = assay: ROS in UVA-irradiated Hacat cells (DCFH-DA fluorescence), antioxidation; type: cell-based; conditions: 10 µM, 24 h then UVA, vs model group, FIG. 8
# Method: The main objective of this example is to investigate the antioxidation effect of the compounds in Example 1.
# Method: Hacat cells were selected and seeded into culture plates. After stabilization for 24 h, the NPL-1 group was treated with 10 µM NPL-1, while the control group and model group were treated with an equivalent volume of the compound solvent, respectively. After 24 h of treatment, all groups except the control group were irradiated with UVA for modeling. At 0.5 h after the modeling was completed, the fluorescent probe DCFH-DA was added and incubated for 0.5 h, followed by fluorescence intensity measurement to evaluate the expression level of ROS.
# mouse skin = assay: NAD+ level in mouse skin after topical application; type: in vivo, C57BL/6 mice; conditions: 3% topical application to the skin, 6 hours, compared to the control group; FIG. 3
# Method: The main objective of this example is to investigate the effect of the Compound NPL-1 in Example 1 on elevating NAD+ level in mouse skin via topical administration.
# Method: Male C57BL/6 mice with 8-9 weeks old were treated with 3% of the Compound NPL-1 via topical application to the skin, and mouse skin samples were collected 6 hours later for NAD+ level detection.
# HSF cells = assay: p16 mRNA in UVA-irradiated HSF cells (qPCR), anti-aging; type: cell-based; conditions: 10 µM, 24 h then UVA, mRNA by qPCR, vs model group; FIG. 7
# Method: The main objective of this example is to investigate the anti-aging effect of the compounds in Example 1.
# Method: HSF cells were selected and seeded into culture plates. After stabilization for 24 h, the NPL-4 group was treated with 10 µM NPL-4, while the control group and model group were treated with an equivalent volume of the compound solvent, respectively. After 24 h of treatment, all groups except the control group were irradiated with UVA to induce cell senescence. The cells were then collected and RNA was extracted. The mRNA level of the senescence-associated gene p16 was determined using qPCR.
# tibialis anterior = assay: CTX-induced muscle injury model (tibialis anterior, HE staining); type: in vivo, C57BL/6 mice; conditions: 3 mg/kg intraperitoneal once daily, 10 µM CTX into tibialis anterior, vs model group; FIG. 5
# Method: The main objective of this example is to investigate the protective effect of the compounds in Example 1 in a muscle injury model. Method: Male C57BL/6 mice with 8-9 weeks old in the model group and the NPL-4 group were injected intraperitoneally with the corresponding solvent or compounds, respectively, for 1 consecutive week. Subsequently, 10 µM CTX was injected into the tibialis anterior for modeling. After another 7 days, the tibialis anterior was harvested for HE staining to evaluate the injury status of the tibialis anterior of the mice. The grouping was as follows: • Control group: 8 male C57BL/6 mice with 8-9 weeks old were treated with the same solvent as in the NPL-4 group via intraperitoneal injection once daily. One week later, normal saline was injected into the tibialis anterior for modeling, while intraperitoneal injection was continued. Seven days later, the tibialis anterior was harvested for HE staining. • Model group: 8 male C57BL/6 mice with 8-9 weeks old were treated with the same solvent as in the NPL-4 group via intraperitoneal injection once daily. One week later, 10 µM CTX was injected into the tibialis anterior for modeling, while intraperitoneal injection was continued. […]
# Wild-type zebrafish = assay: DNA damage repair in zebrafish, hydrogen peroxide model (comet assay); type: in vivo; conditions: 0.25% for 5 days, DNA olive tail moment, vs model group, FIG. 11
# Method: The main objective of this example is to investigate the repairing effect of the compounds in Example 1 on DNA damage.
# Method: Wild-type zebrafish were placed in a 6-well plate. All groups except the control group were treated with hydrogen peroxide to establish a zebrafish DNA damage model. Meanwhile, the NPL-4 group was treated with 0.25% NPL-4 for 5 days, while the control group and model group were treated with an equivalent volume of the compound solvent. The medium was renewed daily. Subsequently, zebrafish samples were collected and ground to prepare cell suspensions. Electrophoresis was performed using a comet assay kit, and data were collected and analyzed using comet analysis software. The DNA olive tail moment value of zebrafish cells was analyzed to evaluate the degree of DNA damage.
# [1] = system: Transgenic zebrafish with green fluorescent mitochondria; assay: Mitochondrial function in zebrafish, cobalt chloride model; type: in vivo; conditions: 0.25%, 22 h then cobalt chloride 4 h, vs model group; FIG. 10
# Method: The main objective of this example is to investigate the effect of the compounds in Example 1 on mitochondrial function.
# Method: Transgenic zebrafish with green fluorescent mitochondria were placed in a 6-well plate. The NPL-4 group was treated with NPL-4 at a concentration of 0.25%, while the control group and model group were treated with an equivalent volume of the compound solvent. After treatment in the dark for 22 h, all groups except the control group were treated with cobalt chloride for modeling. Following incubation in the dark for additional 4 h, the fluorescence intensity of the zebrafish was detected.
# U2OS cells = assay: Protective effect on U2OS cells against FK866-induced cytotoxicity (Cell Titer-Glo viability); type: cell-based; conditions: Homo sapiens, 10 nM FK866, test compound 10 µM, 72 h, viability relative to control minus that of model group, read-out: Percentage increase in cell viability
# Method: The main objective of this example is to investigate the protective effects of the compounds in Example 1 against the cytotoxicity resulting from FK866-mediated reduction in NAD+ levels.
# Method: U2OS cells were selected and seeded into culture plates. After cell stabilization for 1 day, 10 nM of FK866 was added to all groups except the control group to induce cell death. Meanwhile, the test compounds at a concentration of 10 µM were added to the corresponding drug treatment groups, respectively. An equivalent volume of the compound solvent was added to the control group and the model group, respectively. Following incubation for 72 h, Cell Titer-Glo Luminescent cell viability assay reagent (manufacturer: Promega) was added to each well. After mixing well and incubation for 10 minutes, luminescence was detected using a microplate reader with full-wavelength scanning. The pharmacological efficacy of the compounds, expressed as the percentage increase in cell viability, was calculated by subtracting the percentage of the cell viability in the model group relative to the control group from the percentage of the cell viability in the compound-treated group relative to the control group.
smiles,measurement,setting,value
CC(C)(C)c1cccc(C#N)c1OCC(=O)Nc1ccc(O)cc1 [NPL-000],solubility,Solubility of compounds,< 0.1 mg/mL
CC(C)(C)c1ccccc1OCC(=O)Nc1ccc(O)cc1 [NPL-00],solubility,Solubility of compounds,< 0.1 mg/mL
CC(C)(C)c1ncccc1OCC(=O)Nc1ccc(O)cc1 [NPL-1],solubility,Solubility of compounds,7 mg/mL
same,expression level of MYH1,C2C12 cells,significantly higher
same,expression level of ROS,Hacat cells,markedly decreased
same,NAD+ level in the mouse skin,mouse skin,effectively elevated
CC(=O)Nc1ccc(NC(=O)COc2cccnc2C(C)(C)C)cc1 [NPL-4],expression of p16,HSF cells,markedly down-regulated
same,damaged area,tibialis anterior,significantly smaller
same,DNA damage,Wild-type zebrafish,significantly ameliorated
same,mitochondrial fluorescence intensity,[1],significantly enhanced
same,increase in cell viability over FK866 model group at 10 µM,U2OS cells,128%
"CC(C)(C)c1ncncc1CCC(=O)Nc1ccc(O)cc1 [NPL-51, 3-(4-(tert-butyl)pyrimidin-5-yl)-N-(4-hydroxyphenyl)propionamide]",increase in cell viability over FK866 model group at 10 µM,U2OS cells,105%
"CC(=O)Nc1ccc(NC(=O)CCc2nccnc2C(C)(C)C)cc1 [NPL-67, N-(4-acetaminophenyl)-3-(3-(tert-butyl)pyrazin-2-yl)propionamide]",increase in cell viability over FK866 model group at 10 µM,U2OS cells,99.3%
"CC(=O)Nc1ccc(NC(=O)COc2nccnc2C(C)(C)C)cc1 [NPL-70, N-(4-acetaminophenyl)-2-((3-(tert-butyl)pyrazin-2-yl)oxy)acetamide]",increase in cell viability over FK866 model group at 10 µM,U2OS cells,112%
"CC(C)(C)c1nccnc1OCC(=O)Nc1ccc2[nH]c(=O)oc2c1 [NPL-71, 2-((3-(tert-butyl)pyrazin-2-yl)oxy)-N-(2-oxo-2,3-dihydrobenzo[d]oxazol-6-yl)acetamide]",increase in cell viability over FK866 model group at 10 µM,U2OS cells,106%
"CC(C)(C)c1nccnc1CCC(=O)Nc1ccc(O)cc1 [NPL-74, 3-(3-(tert-butyl)pyrazin-2-yl)-N-(4-hydroxyphenyl)propionamide]",increase in cell viability over FK866 model group at 10 µM,U2OS cells,98.6%
"CC(C)(C)c1nccnc1CCC(=O)Nc1ccc2[nH]c(=O)oc2c1 [NPL-76, 3-(3-(tert-butyl)pyrazin-2-yl)-N-(2-oxo-2,3-dihydrobenzo[d]oxazol-6-yl)propionamide]",increase in cell viability over FK866 model group at 10 µM,U2OS cells,99%
"CC(=O)Nc1ccc(NC(=O)COc2ncncc2C(C)(C)C)cc1 [NPL-79, 2-((5-(tert-butyl)pyrimidin-4-yl)oxy)-N-(4-(acetamido)phenyl)acetamide]",increase in cell viability over FK866 model group at 10 µM,U2OS cells,97.9%

# Source: patent EP4800006A1, “NICOTINAMIDE PHOSPHORIBOSYL TRANSFERASE AGONIST AND USE THEREOF” (Nanjing Reju Therapeutics Co. Ltd., priority 2023, dated 2025)
